{
  "source": "ChEMBL document CHEMBL3228014",
  "about": "“Preparation of the enantiomeric forms of 9-(5-deoxy-alpha-threo-pent-4-enofuranosyl)adenine and 9-(3,5-dideoxy-beta-D-glycero-pent-4-enofuranosyl)adenine and in vitro antileukemic screening” (1979)",
  "system": "L1210",
  "assay": "Antiproliferative activity against mouse L1210 cells assessed as growth inhibition at 50 uM",
  "type": "functional",
  "note": "Activity calls are given as the source filed them. The rule behind the calls is not given here.",
  "data": [
    {"smiles": "C=C1C[C@@H](O)[C@H](n2cnc3c(N)ncnc32)O1", "values": [
      {"measurement": "inhibition at 50 µM", "value": 50, "unit": "%"}
    ]},
    {"smiles": "C=C1O[C@@H](n2cnc3c(N)ncnc32)CC1O", "note": "(single isomer, unassigned)", "values": [
      {"measurement": "inhibition", "value": "inactive"}
    ]},
    {"smiles": "C=C1O[C@H](n2cnc3c(N)ncnc32)[C@H](O)[C@H]1O", "values": [
      {"measurement": "inhibition", "value": "inactive"}
    ]},
    {"smiles": "C=C1O[C@H](n2cnc3c(N)ncnc32)[C@@H](O)[C@@H]1O", "values": [
      {"measurement": "inhibition", "value": "inactive"}
    ]},
    {"smiles": "C=C1O[C@@H](n2cnc3c(N)ncnc32)[C@H](O)[C@H]1O", "values": [
      {"measurement": "inhibition", "value": "inactive"}
    ]}
  ]
}
